Experiments:
[1] = test system: MDA-MB-231/breast cancer cells; experiment: MTT-cell proliferation assay; assay type: cell-based, human; details: for IC50: 48 h drug exposure, mean of three experiments ± SEM
Description: (§1) The potential anti-cancer activity of all fourteen final synthesized compounds was investigated through MTT cytotoxic assay against two different human solid cancerous cell lines; A549/lung and MDA-MB-231/breast adenocarcinoma. The adopted cell-proliferation assay assessed % cell viability in relation to the reducing activity of cellular NADPH-dependent cellular oxidoreductases on tetrazolium dye, MTT [2,5-diphenyl-3-(4,5-dimethylthiazol-2-yl)tetrazolium bromide salt], for furnishing an easily quantified insoluble chromogenic formazan. For each drug concentration, 0.1, 1, 10, and 100 μM, the % cell-viability was estimated relative to negative control following a complete 48 h of drug treatment. Both 5-fluorouracil (5-FU) and doxorubicin (DOX) were set as positive index comparators. Moreover, the safety profile of the synthesized compounds was further investigated by examining their in-vitro cytotoxicity on non-cancerous cell line; MDCK/kidney cells.
(§2) Evaluating the cytotoxicity of tested compounds on two cancer cell lines (A549/lung and MDA-MB-231/breast adenocarcinoma) and non-cancerous (MDCK/kidney cells) was performed while adopting the formerly described method with small alterations. Cancer cell lines were propagated within Dulbecco’s Modified Eagle Medium-High Glucose (Cat.#: P0103; DMEM_High Glucose with Na.Pyruvate and stable Glutamine, Biowest^TM, Nuaillé, France), while MDA-MB-231 cells were propagated within RPMI-1640 L-Glutamine medium (Cat.#:12-604F; Lonza-Verviers SPRL^TM, Verviers, Belgium). The culturing media were supplemented via 1% antibiotic-antimycotic 100X (Cat.#: L0010; Biowest^TM, Nuaillé, France) and 10% fetal bovine serum (FBS) (Cat.#: EU-000-H; Seralab^TM, West Sussex, UK). Cells were seeded as triplicates within 96-well plate, at 1 × 10^4 cells per well density, after being counted and viability checked using the trypan blue staining solution (Cat.# ab233465; Abcam^TM, Cambridge, MA, USA). Seeded cells were permitted to adhere for 24 h under 5% CO2 and at 37 °C incubating conditions. The assigned compounds were dissolved in 500 µL DMSO affording the stock solution (100 mM) being ready for more diluting within the whole medium to obtain the compound’s final concentrations; 0.1, 1, 10, 100 µM for cell treatments. […] Following 24 h compound-cell treatment, the medium was substituted by fresh one and cells were permitted to develop for 48 h. At four hours prior the end of incubation, 10 μL MTT Sigma-Aldrich^TM (5 mg/mL in PBS 1X without magnesium and calcium; Cat.# 17-516F, Lonza-Verviers^TM, Basel, Switzerland) were added to all wells. Following the complete 48 h incubation, 100 μL DMSO was all added to all wells where they were subsequently centrifuged at 4000 rpm for 5 min allowing the formazan crystals of formazan to precipitate. Color was established and intensities were recorded at 490 nm using Synergy-Neo2® Hybrid MultiMode Plate Reader (BioTek^TM, Winooski, VT, USA), while subtracting the multi-well plates background absorbance at 690 nm. Percentage cell viability was estimated using the subsequent formula: % cell-viability = (average absorbance of treated wells/average absorbance of controls) × 100.

[2] = test system: A549/lung adenocarcinoma cells; experiment: MTT-cell proliferation assay; assay type: cell-based, human; details: for IC50: Homo sapiens, A549, 48 h drug exposure, mean of three experiments ± SEM
Description: as §1, §2

A549/lung adenocarcinoma = experiment: Morphological assessment; assay type: cell-based, human; details: 0.1-100 µM (5-FU 100 µM), 48 h, phase-contrast microscope
[3] = test system: MDCK/kidney non-cancerous cells; experiment: MTT-cell proliferation assay on non-cancerous cell line; assay type: cell-based; details: Canis lupus familiaris, MDCK, 48 h, 48 h drug exposure, mean ± SEM
Description: as §1, §2

Cc1cccc(NCc2nc3ccccc3[nH]2)c1 [Compound 3a, N-((1H-benzo[d]imidazol-2-yl)methyl)-3-methylaniline]
IC50 ([1]; Homo sapiens, MDA-MB-231, 48 h): 29.7 ± 4.03 µM
melting point: 139 to 141 °C

Cc1cccc(C)c1NCc1nc2ccccc2[nH]1 [Compound 3b, N-((1H-benzo[d]imidazol-2-yl)methyl)-2,6-dimethylaniline]
effect on cell proliferation ([2]; 0.1-100 µM): irregular effects with tendency to increase the cell proliferation
melting point: 159 to 161 °C

Brc1cccc(NCc2nc3ccccc3[nH]2)c1 [Compound 3c, N-((1H-benzo[d]imidazol-2-yl)methyl)-3-bromoaniline]
effect on cell proliferation ([1]; 100 µM drug concentration): enhanced cell proliferation
melting point: 139 to 141 °C

Oc1ccc(NCc2nc3ccccc3[nH]2)cc1 [Compound 3d, 4-(((1H-benzo[d]imidazol-2-yl)methyl)amino)phenol]
melting point: 139 to 141 °C

O=c1[nH]cc(F)c(=O)[nH]1 [Compound 5-FU, 5-fluorouracil, reference compound]
cell morphology alterations (A549/lung adenocarcinoma): epithelial-mesenchymal transition was observed

O=C(NN=Cc1ccccc1)c1cc2ccccc2[nH]1 [Compound 7a, N′-benzylidene-1H-indole-2-carbohydrazide]
melting point: 111 to 113 °C

COc1ccc(C=NNC(=O)c2cc3ccccc3[nH]2)cc1 [Compound 7b, N′-(4-methoxybenzylidene)-1H-indole-2-carbohydrazide]
IC50 ([1]; Homo sapiens, MDA-MB-231, 48 h): 43.8 ± 1.09 µM
IC50 [3]: 28.9 ± 1.49 µM
melting point: 104 to 106 °C

CN(C)c1ccc(C=NNC(=O)c2cc3ccccc3[nH]2)cc1 [Compound 7c, N′-(4-(dimethylamino)benzylidene)-1H-indole-2-carbohydrazide]
melting point: 90 to 92 °C

O=C(NN=Cc1cccnc1)c1cc2ccccc2[nH]1 [Compound 7d, N′-(pyridin-3-ylmethylene)-1H-indole-2-carbohydrazide]
IC50 ([1]; Homo sapiens, MDA-MB-231, 48 h): 17.4 ± 3.23 µM
melting point: 252 to 254 °C

CCc1ccc(-c2nn(-c3ccccc3)cc2C=NNC(=O)c2cc3ccccc3[nH]2)cc1 [Compound 8a, N′-((3-(4-ethylphenyl)-1-phenyl-1H-pyrazol-4-yl)methylene)-1H-indole-2-carbohydrazide]
IC50 [2]: 23.1 ± 1.45 µM
IC50 ([1]; Homo sapiens, MDA-MB-231, 48 h): 12.7 ± 0.84 µM
IC50 [3]: 73.9 ± 2.3 µM
melting point: 254 to 256 °C

CC(C)c1ccc(-c2nn(-c3ccccc3)cc2C=NNC(=O)c2cc3ccccc3[nH]2)cc1 [Compound 8c, N′-((3-(4-isopropylphenyl)-1-phenyl-1H-pyrazol-4-yl)methylene)-1H-indole-2-carbohydrazide]
IC50 [2]: 11.6 ± 2.57 µM
IC50 ([1]; Homo sapiens, MDA-MB-231, 48 h): 12.8 ± 3.5 µM
IC50 [3]: 87.3 ± 3 µM
melting point: 219 to 221 °C

CC(C)Cc1ccc(-c2nn(-c3ccccc3)cc2C=NNC(=O)c2cc3ccccc3[nH]2)cc1 [Compound 8d, N′-((3-(4-isobutylphenyl)-1-phenyl-1H-pyrazol-4-yl)methylene)-1H-indole-2-carbohydrazide]
IC50 [1]: 31.5 ± 4.66 µM
IC50 ([1]; Homo sapiens, MDA-MB-231, 48 h): 21.6 µM
melting point: 229 to 231 °C

Cc1nn(-c2ccc([N+](=O)[O-])c([N+](=O)[O-])c2)c(Cl)c1C=NNC(=O)c1cc2ccccc2[nH]1 [Compound 8f, N′-((5-chloro-1-(3,4-dinitrophenyl)-3-methyl-1H-pyrazol-4-yl)methylene)-1H-indole-2-carbohydrazide]
IC50 [1]: 21.6 ± 0.28 µM
IC50 ([1]; Homo sapiens, MDA-MB-231, 48 h): 31.5 µM
melting point: 204 to 206 °C

Source: PMC7912796, “Design, Synthesis, Anticancer Activity, and Solid Lipid Nanoparticle Formulation of Indole- and Benzimidazole-Based Compounds as Pro-Apoptotic Agents Targeting Bcl-2 Protein” (Pharmaceuticals, 2021)
